From the kinase profiling compilation of Christmann-Franck et al. (2016)

How the values were obtained:
Assay in all cases: KINOMEscan competition binding
[1] = biological target: BMP2K (human) (UniProt Q9NSY1)
[2] = biological target: BMPR1A (human) (UniProt P36894)
[3] = biological target: BRSK2 (human) (UniProt Q8IWQ3)
[4] = biological target: BTK (human) (UniProt Q06187)
[5] = biological target: CDC42BPA (human) (UniProt Q5VT25)
[6] = biological target: CDK15 (human) (UniProt Q96Q40)
[7] = biological target: CDK4 CCND3 (human) (UniProt P11802+P30281)
[8] = biological target: CDK7 (human) (UniProt P50613)
[9] = biological target: CDKL3 (human) (UniProt Q8IVW4)
[10] = biological target: CSK (human) (UniProt P41240)
[11] = biological target: CSNK2A1 (human) (UniProt P68400)
[12] = biological target: DAPK3 (human) (UniProt O43293)
[13] = biological target: DCLK1 (human) (UniProt O15075)
[14] = biological target: DYRK1A (human) (UniProt Q13627)
[15] = test system: EGFR (human), P00533 [747-751 del / S ins]
[16] = test system: EGFR (human), P00533 [T790M/L858R]
[17] = biological target: HIPK4 (human) (UniProt Q8NE63)
[18] = biological target: HUNK (human) (UniProt P57058)
[19] = biological target: ICK (human) (UniProt Q9UPZ9)
[20] = biological target: LRRK2 (human) (UniProt Q5S007)
[21] = biological target: MAP2K2 (human) (UniProt P36507)
[22] = biological target: MAP3K1 (human) (UniProt Q13233)
[23] = biological target: MAP3K3 (human) (UniProt Q99759)
[24] = biological target: MST4 (human) (UniProt Q9P289)
[25] = biological target: PAK6 (human) (UniProt Q9NQU5)
[26] = biological target: PIK3CB (human) (UniProt P42338)
[27] = biological target: PIK3CD (human) (UniProt O00329)
[28] = biological target: PIK3CG (human) (UniProt P48736)
[29] = biological target: PRKAA2 (human) (UniProt P54646)
[30] = biological target: PRKACA (human) (UniProt P17612)
[31] = biological target: PRKCH (human) (UniProt P24723)
[32] = biological target: RIOK3 (human) (UniProt O14730)
[33] = biological target: ROCK2 (human) (UniProt O75116)
[34] = biological target: RPS6KA2 KD2 (human) (UniProt Q15349)
[35] = biological target: RPS6KA4 KD2 (human) (UniProt O75676)
[36] = biological target: SNRK (human) (UniProt Q9NRH2)
[37] = biological target: STK38 (human) (UniProt Q15208)
[38] = biological target: STK39 (human) (UniProt Q9UEW8)
[39] = biological target: SYK (human) (UniProt P43405)
[40] = biological target: TTK (human) (UniProt P33981)
[41] = biological target: TXK (human) (UniProt P42681)
[42] = biological target: VRK2 (human) (UniProt Q86Y07)

Chain of HUNK (human) (P57058 whole entry, looked up): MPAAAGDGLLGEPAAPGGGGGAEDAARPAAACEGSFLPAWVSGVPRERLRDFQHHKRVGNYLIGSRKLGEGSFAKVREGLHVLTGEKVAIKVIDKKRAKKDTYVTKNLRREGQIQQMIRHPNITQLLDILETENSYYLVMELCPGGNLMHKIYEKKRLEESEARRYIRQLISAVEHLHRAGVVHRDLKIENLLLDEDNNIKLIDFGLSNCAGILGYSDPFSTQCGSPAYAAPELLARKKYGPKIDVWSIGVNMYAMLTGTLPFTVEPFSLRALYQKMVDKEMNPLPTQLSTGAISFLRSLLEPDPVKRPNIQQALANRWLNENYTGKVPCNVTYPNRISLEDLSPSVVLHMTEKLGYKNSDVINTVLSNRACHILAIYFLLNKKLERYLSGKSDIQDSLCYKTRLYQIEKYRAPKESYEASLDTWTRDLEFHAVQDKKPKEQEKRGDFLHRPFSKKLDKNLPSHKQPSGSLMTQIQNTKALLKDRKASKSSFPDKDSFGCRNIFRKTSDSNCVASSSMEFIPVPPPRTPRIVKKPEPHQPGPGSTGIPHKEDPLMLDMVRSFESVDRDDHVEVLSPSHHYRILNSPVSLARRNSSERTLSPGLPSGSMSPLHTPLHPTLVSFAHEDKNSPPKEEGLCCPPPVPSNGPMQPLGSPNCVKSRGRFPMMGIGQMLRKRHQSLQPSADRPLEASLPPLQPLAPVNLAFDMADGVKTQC
Chain of SNRK (human) (Q9NRH2 whole entry, looked up): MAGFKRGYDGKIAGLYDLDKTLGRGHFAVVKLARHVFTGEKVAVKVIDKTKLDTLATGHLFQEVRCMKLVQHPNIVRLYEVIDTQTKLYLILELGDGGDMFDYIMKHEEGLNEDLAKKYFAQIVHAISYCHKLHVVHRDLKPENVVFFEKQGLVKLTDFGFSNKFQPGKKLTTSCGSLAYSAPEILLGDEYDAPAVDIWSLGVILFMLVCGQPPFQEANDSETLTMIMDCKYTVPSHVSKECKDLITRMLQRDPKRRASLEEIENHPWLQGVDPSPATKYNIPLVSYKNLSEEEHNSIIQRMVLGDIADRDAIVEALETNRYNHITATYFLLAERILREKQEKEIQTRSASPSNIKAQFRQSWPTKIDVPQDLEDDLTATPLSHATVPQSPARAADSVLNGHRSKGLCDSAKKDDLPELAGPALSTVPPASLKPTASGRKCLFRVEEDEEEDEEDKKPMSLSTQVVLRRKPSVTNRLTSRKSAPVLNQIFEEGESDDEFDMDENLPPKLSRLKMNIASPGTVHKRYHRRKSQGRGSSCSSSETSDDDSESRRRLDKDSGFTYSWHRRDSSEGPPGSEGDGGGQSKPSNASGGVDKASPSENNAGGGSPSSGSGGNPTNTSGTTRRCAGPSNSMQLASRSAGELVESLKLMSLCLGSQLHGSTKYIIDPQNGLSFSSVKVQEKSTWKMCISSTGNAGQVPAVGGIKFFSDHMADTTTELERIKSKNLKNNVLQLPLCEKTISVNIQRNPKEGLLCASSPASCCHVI
Chain of BRSK2 (human) (Q8IWQ3 whole entry, looked up): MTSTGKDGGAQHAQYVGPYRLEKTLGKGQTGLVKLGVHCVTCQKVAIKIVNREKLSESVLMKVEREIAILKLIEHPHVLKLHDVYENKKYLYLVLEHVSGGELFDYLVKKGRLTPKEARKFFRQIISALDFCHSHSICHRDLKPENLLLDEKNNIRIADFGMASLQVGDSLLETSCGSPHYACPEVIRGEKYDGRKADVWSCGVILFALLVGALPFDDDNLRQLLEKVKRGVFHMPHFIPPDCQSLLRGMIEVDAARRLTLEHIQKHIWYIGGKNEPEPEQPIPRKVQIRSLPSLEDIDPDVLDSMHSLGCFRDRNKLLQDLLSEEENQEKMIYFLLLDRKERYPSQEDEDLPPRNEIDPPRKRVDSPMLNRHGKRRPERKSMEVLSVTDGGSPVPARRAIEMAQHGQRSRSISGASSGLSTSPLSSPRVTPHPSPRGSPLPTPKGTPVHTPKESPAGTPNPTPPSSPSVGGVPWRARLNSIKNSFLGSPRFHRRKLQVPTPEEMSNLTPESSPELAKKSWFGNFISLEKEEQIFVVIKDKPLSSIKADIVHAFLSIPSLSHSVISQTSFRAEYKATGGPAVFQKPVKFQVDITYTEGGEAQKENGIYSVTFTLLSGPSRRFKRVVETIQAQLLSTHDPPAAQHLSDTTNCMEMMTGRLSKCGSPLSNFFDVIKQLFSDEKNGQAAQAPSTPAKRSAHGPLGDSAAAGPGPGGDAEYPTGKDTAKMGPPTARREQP
Chain of PAK6 (human) (Q9NQU5 whole entry, looked up): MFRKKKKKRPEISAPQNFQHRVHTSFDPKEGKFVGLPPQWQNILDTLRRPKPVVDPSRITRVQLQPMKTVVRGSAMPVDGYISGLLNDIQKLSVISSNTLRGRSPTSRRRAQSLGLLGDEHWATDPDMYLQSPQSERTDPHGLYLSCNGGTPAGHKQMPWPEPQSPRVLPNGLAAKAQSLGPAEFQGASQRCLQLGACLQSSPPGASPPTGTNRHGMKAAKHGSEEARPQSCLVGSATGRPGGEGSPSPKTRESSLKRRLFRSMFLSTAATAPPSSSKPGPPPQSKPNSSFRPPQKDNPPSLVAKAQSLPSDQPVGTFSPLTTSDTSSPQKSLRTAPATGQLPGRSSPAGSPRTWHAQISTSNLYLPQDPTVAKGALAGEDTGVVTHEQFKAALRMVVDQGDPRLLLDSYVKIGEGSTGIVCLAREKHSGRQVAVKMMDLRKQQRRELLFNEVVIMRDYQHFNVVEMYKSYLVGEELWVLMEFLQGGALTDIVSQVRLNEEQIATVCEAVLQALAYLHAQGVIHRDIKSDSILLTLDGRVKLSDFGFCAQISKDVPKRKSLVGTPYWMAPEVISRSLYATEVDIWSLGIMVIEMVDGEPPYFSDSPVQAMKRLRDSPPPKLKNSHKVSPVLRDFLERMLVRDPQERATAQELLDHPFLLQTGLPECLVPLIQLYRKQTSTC
Chain of STK38 (human) (Q15208 whole entry, looked up): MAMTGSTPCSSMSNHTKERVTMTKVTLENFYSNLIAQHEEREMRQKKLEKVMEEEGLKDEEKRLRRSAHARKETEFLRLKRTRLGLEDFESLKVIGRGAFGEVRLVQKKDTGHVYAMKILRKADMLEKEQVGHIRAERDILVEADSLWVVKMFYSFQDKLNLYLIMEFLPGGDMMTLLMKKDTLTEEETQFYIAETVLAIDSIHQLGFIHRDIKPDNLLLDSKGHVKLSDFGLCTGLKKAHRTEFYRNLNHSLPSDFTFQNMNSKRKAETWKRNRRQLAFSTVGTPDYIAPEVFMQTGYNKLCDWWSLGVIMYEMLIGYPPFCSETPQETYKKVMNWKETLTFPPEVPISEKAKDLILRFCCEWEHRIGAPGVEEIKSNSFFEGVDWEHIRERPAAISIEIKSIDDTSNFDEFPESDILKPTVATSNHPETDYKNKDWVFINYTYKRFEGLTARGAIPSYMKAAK
Chain of BTK (human) (Q06187 whole entry, looked up): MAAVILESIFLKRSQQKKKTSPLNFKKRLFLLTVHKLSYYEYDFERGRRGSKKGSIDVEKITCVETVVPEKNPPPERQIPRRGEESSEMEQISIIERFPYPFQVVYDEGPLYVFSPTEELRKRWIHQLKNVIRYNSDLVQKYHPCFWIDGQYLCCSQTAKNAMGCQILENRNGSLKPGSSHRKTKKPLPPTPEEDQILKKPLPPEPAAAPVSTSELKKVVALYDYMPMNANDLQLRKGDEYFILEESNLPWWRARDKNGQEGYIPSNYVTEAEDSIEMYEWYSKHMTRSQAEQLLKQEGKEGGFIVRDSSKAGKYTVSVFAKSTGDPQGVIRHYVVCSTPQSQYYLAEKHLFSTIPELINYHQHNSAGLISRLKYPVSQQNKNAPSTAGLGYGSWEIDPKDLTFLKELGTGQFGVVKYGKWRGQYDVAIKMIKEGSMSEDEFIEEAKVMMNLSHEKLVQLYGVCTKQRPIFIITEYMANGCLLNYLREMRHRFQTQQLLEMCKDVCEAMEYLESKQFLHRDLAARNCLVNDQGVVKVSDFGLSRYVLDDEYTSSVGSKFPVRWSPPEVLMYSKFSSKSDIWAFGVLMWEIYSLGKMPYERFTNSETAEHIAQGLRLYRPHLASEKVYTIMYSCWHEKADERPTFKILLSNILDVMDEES
Chain of DAPK3 (human) (O43293 whole entry, looked up): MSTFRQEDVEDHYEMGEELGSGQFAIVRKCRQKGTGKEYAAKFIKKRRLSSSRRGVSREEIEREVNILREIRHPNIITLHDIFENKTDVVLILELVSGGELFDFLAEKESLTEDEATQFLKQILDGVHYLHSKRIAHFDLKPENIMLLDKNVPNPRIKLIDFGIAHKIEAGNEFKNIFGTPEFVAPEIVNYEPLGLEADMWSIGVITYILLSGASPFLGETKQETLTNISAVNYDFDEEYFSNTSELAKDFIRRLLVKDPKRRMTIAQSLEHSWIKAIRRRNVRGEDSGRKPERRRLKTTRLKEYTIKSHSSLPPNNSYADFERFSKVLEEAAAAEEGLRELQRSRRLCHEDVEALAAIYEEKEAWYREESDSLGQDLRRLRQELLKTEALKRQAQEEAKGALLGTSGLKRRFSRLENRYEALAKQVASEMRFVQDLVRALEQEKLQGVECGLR
Chain of RIOK3 (human) (O14730 whole entry, looked up): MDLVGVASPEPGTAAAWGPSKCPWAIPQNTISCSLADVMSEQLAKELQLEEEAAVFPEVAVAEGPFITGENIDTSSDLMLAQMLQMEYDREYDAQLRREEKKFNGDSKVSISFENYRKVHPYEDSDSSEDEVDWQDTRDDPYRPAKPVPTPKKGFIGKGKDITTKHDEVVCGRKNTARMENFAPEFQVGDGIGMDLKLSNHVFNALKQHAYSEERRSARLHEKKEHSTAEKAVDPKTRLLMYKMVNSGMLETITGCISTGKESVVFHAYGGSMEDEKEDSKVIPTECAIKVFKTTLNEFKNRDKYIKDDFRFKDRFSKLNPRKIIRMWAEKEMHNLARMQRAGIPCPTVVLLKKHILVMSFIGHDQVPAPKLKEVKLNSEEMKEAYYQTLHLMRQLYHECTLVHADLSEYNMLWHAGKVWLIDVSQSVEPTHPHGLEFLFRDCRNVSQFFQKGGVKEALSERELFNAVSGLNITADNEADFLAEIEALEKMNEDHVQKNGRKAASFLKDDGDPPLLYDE

Cc1cc(NC(=O)c2cccc(NC(=O)/C=C/CN(C)C)c2)ccc1Nc1nccc(-c2cccnc2)n1
kinase still bound, per cent of control ([1]; compound 1.0 µM): 94%
kinase still bound, per cent of control ([2]; compound 1.0 µM): 100%
kinase still bound, per cent of control ([3]; compound 1.0 µM): 99%
kinase still bound, per cent of control ([4]; compound 1.0 µM): 100%
kinase still bound, per cent of control ([5]; compound 1.0 µM): 100%
kinase still bound, per cent of control ([6]; compound 1.0 µM): 100%
kinase still bound, per cent of control ([7]; compound 1.0 µM): 60%
kinase still bound, per cent of control ([8]; compound 1.0 µM): 39%
kinase still bound, per cent of control ([9]; compound 1.0 µM): 100%
kinase still bound, per cent of control ([10]; compound 1.0 µM): 100%
kinase still bound, per cent of control ([11]; compound 1.0 µM): 57%
kinase still bound, per cent of control ([12]; compound 1.0 µM): 100%
kinase still bound, per cent of control ([13]; compound 1.0 µM): 100%
kinase still bound, per cent of control ([14]; compound 1.0 µM): 81%
kinase still bound, per cent of control ([15]; compound 1.0 µM): 95%
kinase still bound, per cent of control ([16]; compound 1.0 µM): 81%
kinase still bound, per cent of control ([17]; compound 1.0 µM): 4%
kinase still bound, per cent of control ([18]; compound 1.0 µM): 53%
kinase still bound, per cent of control ([19]; compound 1.0 µM): 92%
kinase still bound, per cent of control ([20]; compound 1.0 µM): 50%
kinase still bound, per cent of control ([21]; compound 1.0 µM): 91%
kinase still bound, per cent of control ([22]; compound 1.0 µM): 100%
kinase still bound, per cent of control ([23]; compound 1.0 µM): 95%
kinase still bound, per cent of control ([24]; compound 1.0 µM): 82%
kinase still bound, per cent of control ([25]; compound 1.0 µM): 100%
kinase still bound, per cent of control ([26]; compound 1.0 µM): 79%
kinase still bound, per cent of control ([27]; compound 1.0 µM): 95%
kinase still bound, per cent of control ([28]; compound 1.0 µM): 100%
kinase still bound, per cent of control ([29]; compound 1.0 µM): 84%
kinase still bound, per cent of control ([30]; compound 1.0 µM): 100%
kinase still bound, per cent of control ([31]; compound 1.0 µM): 94%
kinase still bound, per cent of control ([32]; compound 1.0 µM): 72%
kinase still bound, per cent of control ([33]; compound 1.0 µM): 49%
kinase still bound, per cent of control ([34]; compound 1.0 µM): 100%
kinase still bound, per cent of control ([35]; compound 1.0 µM): 74%
kinase still bound, per cent of control ([36]; compound 1.0 µM): 100%
kinase still bound, per cent of control ([37]; compound 1.0 µM): 97%
kinase still bound, per cent of control ([38]; compound 1.0 µM): 95%
kinase still bound, per cent of control ([39]; compound 1.0 µM): 100%
kinase still bound, per cent of control ([40]; compound 1.0 µM): 46%
kinase still bound, per cent of control ([41]; compound 1.0 µM): 96%
kinase still bound, per cent of control ([42]; compound 1.0 µM): 97%

CN(C)C/C=C/C(=O)Nc1cccc(C(=O)Nc2ccc(Nc3nccc(-c4cccnc4)n3)cc2)c1
Kd [1]: 190 nM
kinase still bound, per cent of control ([1]; compound 1.0 µM): 3.8%
kinase still bound, per cent of control ([2]; compound 1.0 µM): 46%
kinase still bound, per cent of control ([3]; compound 1.0 µM): 98%
kinase still bound, per cent of control ([4]; compound 1.0 µM): 76%
kinase still bound, per cent of control ([5]; compound 1.0 µM): 100%
kinase still bound, per cent of control ([6]; compound 1.0 µM): 96%
kinase still bound, per cent of control ([7]; compound 1.0 µM): 61%
kinase still bound, per cent of control ([8]; compound 1.0 µM): 20%
kinase still bound, per cent of control ([9]; compound 1.0 µM): 41%
kinase still bound, per cent of control ([10]; compound 1.0 µM): 97%
kinase still bound, per cent of control ([11]; compound 1.0 µM): 17%
kinase still bound, per cent of control ([12]; compound 1.0 µM): 65%
kinase still bound, per cent of control ([13]; compound 1.0 µM): 96%
kinase still bound, per cent of control ([14]; compound 1.0 µM): 37%
kinase still bound, per cent of control ([15]; compound 1.0 µM): 74%
kinase still bound, per cent of control ([16]; compound 1.0 µM): 100%
kinase still bound, per cent of control ([17]; compound 1.0 µM): 18%
kinase still bound, per cent of control ([18]; compound 1.0 µM): 65%
Kd [19]: 54 nM
kinase still bound, per cent of control ([19]; compound 1.0 µM): 3.4%
kinase still bound, per cent of control ([20]; compound 1.0 µM): 63%
kinase still bound, per cent of control ([21]; compound 1.0 µM): 58%
kinase still bound, per cent of control ([22]; compound 1.0 µM): 85%
kinase still bound, per cent of control ([23]; compound 1.0 µM): 77%
kinase still bound, per cent of control ([24]; compound 1.0 µM): 34%
kinase still bound, per cent of control ([25]; compound 1.0 µM): 87%
kinase still bound, per cent of control ([26]; compound 1.0 µM): 94%
kinase still bound, per cent of control ([27]; compound 1.0 µM): 100%
kinase still bound, per cent of control ([28]; compound 1.0 µM): 21%
kinase still bound, per cent of control ([29]; compound 1.0 µM): 81%
kinase still bound, per cent of control ([30]; compound 1.0 µM): 83%
kinase still bound, per cent of control ([31]; compound 1.0 µM): 84%
kinase still bound, per cent of control ([32]; compound 1.0 µM): 8.3%
kinase still bound, per cent of control ([33]; compound 1.0 µM): 16%
kinase still bound, per cent of control ([34]; compound 1.0 µM): 92%
kinase still bound, per cent of control ([35]; compound 1.0 µM): 65%
kinase still bound, per cent of control ([36]; compound 1.0 µM): 90%
kinase still bound, per cent of control ([37]; compound 1.0 µM): 100%
kinase still bound, per cent of control ([38]; compound 1.0 µM): 95%
kinase still bound, per cent of control ([39]; compound 1.0 µM): 66%
kinase still bound, per cent of control ([40]; compound 1.0 µM): 97%
kinase still bound, per cent of control ([41]; compound 1.0 µM): 83%
kinase still bound, per cent of control ([42]; compound 1.0 µM): 98%

Cc1ccc(NC(=O)c2ccc(NC(=O)/C=C/CN(C)C)cc2)cc1Nc1nccc(-c2cccnc2)n1
kinase still bound, per cent of control ([1]; compound 10.0 µM): 88%
kinase still bound, per cent of control ([2]; compound 10.0 µM): 81%
kinase still bound, per cent of control ([3]; compound 10.0 µM): 88%
kinase still bound, per cent of control ([4]; compound 10.0 µM): 76%
kinase still bound, per cent of control ([5]; compound 10.0 µM): 83%
kinase still bound, per cent of control ([6]; compound 10.0 µM): 100%
kinase still bound, per cent of control ([7]; compound 10.0 µM): 100%
kinase still bound, per cent of control ([8]; compound 10.0 µM): 68%
kinase still bound, per cent of control ([9]; compound 10.0 µM): 100%
kinase still bound, per cent of control ([10]; compound 10.0 µM): 100%
kinase still bound, per cent of control ([11]; compound 10.0 µM): 11%
kinase still bound, per cent of control ([12]; compound 10.0 µM): 75%
kinase still bound, per cent of control ([13]; compound 10.0 µM): 84%
kinase still bound, per cent of control ([14]; compound 10.0 µM): 98%
kinase still bound, per cent of control ([15]; compound 10.0 µM): 50%
kinase still bound, per cent of control ([16]; compound 10.0 µM): 100%
kinase still bound, per cent of control ([17]; compound 10.0 µM): 18%
kinase still bound, per cent of control ([18]; compound 10.0 µM): 25%
kinase still bound, per cent of control ([19]; compound 10.0 µM): 82%
kinase still bound, per cent of control ([20]; compound 10.0 µM): 41%
kinase still bound, per cent of control ([21]; compound 10.0 µM): 74%
kinase still bound, per cent of control ([22]; compound 10.0 µM): 100%
kinase still bound, per cent of control ([23]; compound 10.0 µM): 81%
kinase still bound, per cent of control ([24]; compound 10.0 µM): 53%
kinase still bound, per cent of control ([25]; compound 10.0 µM): 45%
kinase still bound, per cent of control ([26]; compound 10.0 µM): 100%
kinase still bound, per cent of control ([27]; compound 10.0 µM): 95%
kinase still bound, per cent of control ([28]; compound 10.0 µM): 68%
kinase still bound, per cent of control ([29]; compound 10.0 µM): 56%
kinase still bound, per cent of control ([30]; compound 10.0 µM): 100%
kinase still bound, per cent of control ([31]; compound 10.0 µM): 87%
kinase still bound, per cent of control ([32]; compound 10.0 µM): 47%
kinase still bound, per cent of control ([33]; compound 10.0 µM): 61%
kinase still bound, per cent of control ([34]; compound 10.0 µM): 86%
kinase still bound, per cent of control ([35]; compound 10.0 µM): 64%
kinase still bound, per cent of control ([36]; compound 10.0 µM): 92%
kinase still bound, per cent of control ([37]; compound 10.0 µM): 80%
kinase still bound, per cent of control ([38]; compound 10.0 µM): 82%
kinase still bound, per cent of control ([39]; compound 10.0 µM): 62%
kinase still bound, per cent of control ([40]; compound 10.0 µM): 83%
kinase still bound, per cent of control ([41]; compound 10.0 µM): 94%
kinase still bound, per cent of control ([42]; compound 10.0 µM): 85%
